This passage reports EC50 and Emax results from US7932394B2, “Aryloxy-substituted benzimidazole derivatives” (MSD K.K., priority 2004, dated 2011).

For the test, the target named is T1, recombinant human liver GK (Homo sapiens, UniProt P35557).
T1 construct: made in house; host or cells: E. coli
T1 sequence (P35557 1-466 isoform P35557-2): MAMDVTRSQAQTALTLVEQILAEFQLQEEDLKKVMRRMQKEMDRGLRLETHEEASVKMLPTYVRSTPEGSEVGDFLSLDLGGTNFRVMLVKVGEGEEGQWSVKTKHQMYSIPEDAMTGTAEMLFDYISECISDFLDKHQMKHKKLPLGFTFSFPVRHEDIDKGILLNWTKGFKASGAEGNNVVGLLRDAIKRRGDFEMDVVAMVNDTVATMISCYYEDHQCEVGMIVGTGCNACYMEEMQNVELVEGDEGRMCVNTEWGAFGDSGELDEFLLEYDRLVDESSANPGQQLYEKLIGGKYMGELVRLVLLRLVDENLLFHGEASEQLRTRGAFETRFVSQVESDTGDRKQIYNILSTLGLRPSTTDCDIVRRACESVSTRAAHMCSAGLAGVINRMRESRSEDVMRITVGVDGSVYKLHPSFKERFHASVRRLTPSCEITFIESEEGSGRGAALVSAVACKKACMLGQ
Description: GK-activating potency: glucokinase activity via Thio-NADH level (G6PDH reporter enzyme). In kind it is biochemical. The settings on record: FLAG-GK, 30° C., final glucose concentration 2.5 mM; for Emax: OD level of DMSO control set as 100%. The source says: The excellent glucokinase-activating effect of the compounds of formula (I) may be determined by a method described in references (for example, Diabetes, Vol. 45, pp. 1671-1677, 1996), or in accordance with it.
The glucokinase activity may be determined not by directly measuring glucose-6-phosphate but by measuring the level of Thio-NADH, which is produced when a reporter enzyme, glucose-6-phosphate dehydrogenase produces phosphogluconolactone from glucose-6-phosphate, and based on the level, the degree of glucokinase activity of the compound tested may be determined.
In this assay, used was a recombinant human liver GK, which was expressed by E. coli as a FLAG fusion protein therein and was purified by ANTIFLAG M2 AFFINITY GEL (Sigma).
Using a flat-bottomed 96-well plate, the assay was carried out at 30° C. 69 μl of an assay buffer (25 mM Hepes Buffer/pH=7.2, 2 mM MgCl2, 1 mM ATP, 0.5 mM TNAD, 1 mM dithiothreitol) was put into the plate, and 1 μl of a DMSO solution of the compound or DMSO alone as a control was added thereto. Next, 20 μl of an enzyme mixture (FLAG-GK, 20 U/ml G6PDH) cooled in ice was added to it, and 10 μl of a substrate, 25 mM glucose was added to it, and the reaction was initiated (final glucose concentration=2.5 mM).
After the start of the reaction, the increase in the absorbance at 405 nm was measured for 12 minutes at intervals of 30 seconds, and the increase for the first 5 minutes was used for evaluating the compound tested. FLAG-GK was added so that the absorbance increase after 5 minutes in the presence of 1% DMSO could be from 0.04 to 0.06.
The OD level of the DMSO control was set as 100%; and the OD level of the test compound at different concentrations was determined. From the OD level at each concentration, Emax (%) and EC50 (μM) were computed and used as the index of the GK-activating potency of the compound.

Structures are written as SMILES.

Regarding `CCS(=O)(=O)c1ccc(Oc2cc3nc(-c4ccccn4)[nH]c3cc2CNS(C)(=O)=O)cc1` [Example 31, N-{[5-[4-(ethylsulfonyl)phenoxy]-2-(2-pyridinyl)-1H-benzimidazol-6-yl]methyl}methanesulfonamide], the EC50 stood at 490 nM and the Emax amounted to 982%.

For `CCS(=O)(=O)c1ccc(Oc2cc3nc(-c4ccccn4)[nH]c3cc2Cc2ccc(F)cc2)cc1` [Example 65, 5-[4-(Ethylsulfonyl)phenoxy]-6-(4-fluorobenzyl)-2-(2-pyridinyl)-1H-benzimidazole], the EC50 was found to be 360 nM and the Emax came to 805%.

`CS(=O)(=O)c1ccc(Oc2cc3nc(-c4ccccn4)[nH]c3cc2CN2C(=O)CCC2=O)cc1` [Example 1, 1-{[5-[4-(Methylsulfonyl)phenoxy]-2-(2-pyridinyl)-1H-benzimidazol-6-yl]methyl}pyrrolidine-2,5-dione]: the EC50 amounted to 120 nM.
